Experimental data taken from ChEMBL document CHEMBL1145549, “Constrained NBMPR analogue synthesis, pharmacophore mapping and 3D-QSAR modeling of equilibrative nucleoside transporter 1 (ENT1) inhibitory activity” (Bioorg Med Chem, 2008).

target: T1, Equilibrative nucleoside transporter 1 (Homo sapiens, UniProt Q99808); experiment: Binding affinity to ENT1 transporter
T1 sequence (Q99808 whole entry): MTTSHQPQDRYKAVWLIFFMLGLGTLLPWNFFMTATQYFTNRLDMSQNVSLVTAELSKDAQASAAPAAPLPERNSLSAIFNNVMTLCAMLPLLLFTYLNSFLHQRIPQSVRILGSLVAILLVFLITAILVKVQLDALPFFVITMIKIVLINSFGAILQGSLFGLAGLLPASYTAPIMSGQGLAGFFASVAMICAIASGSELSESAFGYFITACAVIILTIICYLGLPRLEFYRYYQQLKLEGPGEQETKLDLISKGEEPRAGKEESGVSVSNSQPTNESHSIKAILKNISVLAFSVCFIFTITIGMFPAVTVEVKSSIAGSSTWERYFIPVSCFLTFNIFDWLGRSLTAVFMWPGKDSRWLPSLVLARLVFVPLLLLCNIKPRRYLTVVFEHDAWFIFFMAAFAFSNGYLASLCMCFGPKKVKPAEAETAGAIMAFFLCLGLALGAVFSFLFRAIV

Structure (SMILES) | IC50
CSc1ncnc2c1ncn2C1CCCCO1 (stereo not drawn) | 275 µM
Cc1cc(C)c(SCc2ncnc3c2ncn3[C@@H]2O[C@H](CO)[C@@H](O)[C@H]2O)c(C)c1 | 33.1 µM
C=CCSc1ncnc2c1ncn2[C@@H]1O[C@H](CO)[C@@H](O)[C@H]1O | 13.8 µM
CCC(C)Sc1nc(N)nc2c1ncn2[C@@H]1O[C@H](CO)[C@@H](O)[C@H]1O (stereo partly drawn) | 63.1 µM
OC[C@H]1O[C@@H](n2cnc3c(NCc4cccs4)ncnc32)[C@H](O)[C@@H]1O | 17.8 µM
Nc1ncnc2c1ncn2[C@@H]1O[C@H](COCCOCCNc2ncnc3c2ncn3[C@@H]2O[C@H](CO)[C@@H](O)[C@H]2O)[C@@H](O)[C@H]1O | 912 µM
CCSc1ncnc2c1ncn2[C@@H]1O[C@H](CO)[C@@H](O)[C@H]1O | 57.5 µM
CCCSc1nc(N)nc2c1ncn2[C@@H]1O[C@H](CO)[C@@H](O)[C@H]1O | 32.4 µM
Nc1nc(SCc2cccnc2)c2ncn([C@@H]3O[C@H](CO)[C@@H](O)[C@H]3O)c2n1 | 14.8 µM
CC(C)Sc1nc(N)nc2c1ncn2[C@@H]1O[C@H](CO)[C@@H](O)[C@H]1O | 191 µM
Cc1cccc(CSc2nc(N)nc3c2ncn3[C@@H]2O[C@H](CO)[C@@H](O)[C@H]2O)n1 | 11500 µM
CC(C)CSc1nc(N)nc2c1ncn2[C@@H]1O[C@H](CO)[C@@H](O)[C@H]1O | 8.71 µM
CCCn1cnc2c(SC(C)C)nc(N)nc21 | 145 µM
OC[C@H]1O[C@@H](n2ccc3c(S)ncnc32)[C@H](O)[C@@H]1O | 389 µM
CCCCn1cnc2c(SC(C)C)nc(N)nc21 | 120 µM
CCCCCNc1ncnc2c1ncn2[C@@H]1O[C@H](CO)[C@@H](O)[C@H]1O | 13.5 µM
CCCSc1nc(N)nc2c1ncn2CC(C)C | 63.1 µM
CC(C)Nc1ncnc2c1ncn2[C@@H]1O[C@H](CO)[C@@H](O)[C@H]1O | 257 µM
OC[C@H]1O[C@@H](n2cnc3c(Sc4ccccc4)ncnc32)[C@H](O)[C@@H]1O | 91.2 µM
Cn1cnc([N+](=O)[O-])c1Sc1nc(N)nc2c1ncn2[C@@H]1O[C@H](CO)[C@@H](O)[C@H]1O | 575 µM
OC[C@H]1O[C@@H](n2ccc3c(N4CCCCC4)ncnc32)[C@H](O)[C@@H]1O | 195 µM

Structure (SMILES) | IC50
CC(C)(C)c1ccc(SCc2ncnc3c2ncn3[C@@H]2O[C@H](CO)[C@@H](O)[C@H]2O)cc1 | 331 µM
OC[C@H]1O[C@@H](n2cnc3c(NCc4ccco4)ncnc32)[C@H](O)[C@@H]1O [KINETIN RIBOSIDE] | 36.3 µM
Cc1cccc(CSc2ncnc3c2ncn3[C@@H]2O[C@H](CO)[C@@H](O)[C@H]2O)c1 | 12 µM
CCCCn1cnc2c(SC)nc(N)nc21 | 219 µM
CCCCSc1nc(N)nc2c1ncn2[C@@H]1O[C@H](CO)[C@@H](O)[C@H]1O | 12 µM
CCCn1cnc2c(SCc3ccccn3)nc(N)nc21 | 91.2 µM
Nc1ncnc2c1c(I)cn2[C@@H]1O[C@H](CO)[C@@H](O)[C@H]1O [IODOTUBERCIDIN] | 229 µM
COc1cccc(CNc2ncnc3c2ncn3[C@@H]2O[C@H](CO)[C@@H](O)[C@H]2O)c1 | 115 µM
Nc1nc(SCCc2ccccc2)c2ncn([C@@H]3O[C@H](CO)[C@@H](O)[C@H]3O)c2n1 | 16.2 µM
OC[C@H]1O[C@@H](n2cnc3c(Nc4ccccc4)ncnc32)[C@H](O)[C@@H]1O [N6-PHENYLADENOSINE] | 32.4 µM
Nc1nc(SCc2ccccc2)c2ncn([C@@H]3O[C@H](CO)[C@@H](O)[C@H]3O)c2n1 | 5.25 µM
OC[C@H]1O[C@@H](n2cc(I)c3c(Cl)ncnc32)[C@H](O)[C@@H]1O | 77.6 µM
Cc1ccccc1CSc1ncnc2c1ncn2[C@@H]1O[C@H](CO)[C@@H](O)[C@H]1O | 6.31 µM
O=[N+]([O-])c1cc(Cl)ccc1CNc1ncnc2c1ncn2[C@@H]1O[C@H](CO)[C@@H](O)[C@H]1O | 46.8 µM
OC[C@H]1O[C@@H](n2cnc3c(SC4CCCCC4)ncnc32)[C@H](O)[C@@H]1O | 6.31 µM
CC(C)CCNc1ncnc2[nH]ncc12 | 234 µM
CC(=O)c1ccccc1Sc1nc(N)nc2c1ncn2[C@@H]1O[C@H](CO)[C@@H](O)[C@H]1O | 447 µM
CC(C)(Sc1ncnc2c1ncn2[C@@H]1O[C@H](CO)[C@@H](O)[C@H]1O)c1ccccc1 | 21.4 µM
OC[C@H]1O[C@@H](n2ccc3c(SCc4ccccc4)ncnc32)[C@H](O)[C@@H]1O | 5.25 µM
CSc1ncnc2c1ncn2[C@@H]1O[C@H](CO)[C@@H](O)[C@H]1O | 229 µM

Stronger by IC50, values ahead:

IC50 | Structure (SMILES)
0.123 µM | OC[C@H]1O[C@@H](n2cnc3c(CSc4ccc(OC(F)(F)F)cc4)ncnc32)[C@H](O)[C@@H]1O
0.282 µM | OC[C@H]1O[C@@H](n2cnc3c(CSc4cccc(Cl)c4)ncnc32)[C@H](O)[C@@H]1O
0.0316 µM | O=[N+]([O-])c1ccc(CNc2ncnc3c2ncn3[C@@H]2O[C@H](CO)[C@@H](O)[C@@H]2O)cc1
0.457 µM | Cc1ccc(CSc2ncnc3c2ncn3[C@@H]2O[C@H](CO)[C@@H](O)[C@H]2O)cc1
0.0055 µM | O=[N+]([O-])c1ccc2c(c1)CN(c1ncnc3c1ncn3[C@@H]1O[C@H](CO)[C@@H](O)[C@H]1O)CC2
0.0219 µM | C[C@H]1O[C@@H](n2cnc3c(NCc4ccc([N+](=O)[O-])cc4)ncnc32)[C@H](O)[C@@H]1O
0.224 µM | OC[C@H]1O[C@@H](n2cnc3c(CSc4ccc(Cl)c(Cl)c4)ncnc32)[C@H](O)[C@@H]1O
2.4 µM | OC[C@H]1O[C@@H](n2cnc3c(CSc4ccccc4Br)ncnc32)[C@H](O)[C@@H]1O
0.107 µM | O=[N+]([O-])c1ccc(CNc2ncnc3c2ncn3[C@@H]2O[C@H](CCl)[C@@H](O)[C@H]2O)cc1
1.82 µM | OC[C@H]1O[C@@H](n2cnc3c(N4CCc5ccccc5C4)ncnc32)[C@H](O)[C@@H]1O
0.617 µM | COc1ccc(SCc2ncnc3c2ncn3[C@@H]2O[C@H](CO)[C@@H](O)[C@H]2O)cc1
0.251 µM | OC[C@H]1O[C@@H](n2cnc3c(CSc4ccc(Cl)cc4)ncnc32)[C@H](O)[C@@H]1O
2.09 µM | OC[C@H]1O[C@@H](n2cnc3c(OCc4ccccc4)ncnc32)[C@H](O)[C@@H]1O
0.708 µM | O=[N+]([O-])c1cc(CNc2ncnc3c2ncn3[C@@H]2O[C@H](CO)[C@@H](O)[C@H]2O)ccc1Cl
0.0776 µM | OC[C@H]1O[C@@H](n2cnc3c(CSc4ccc(Cl)cc4Cl)ncnc32)[C@H](O)[C@@H]1O
0.0813 µM | N#Cc1ccc(SCc2ncnc3c2ncn3[C@@H]2O[C@H](CO)[C@@H](O)[C@H]2O)cc1
0.2 µM | OC[C@H]1O[C@@H](n2cnc3c(CSc4cccc(F)c4)ncnc32)[C@H](O)[C@@H]1O
1.78 µM | OC[C@H]1O[C@@H](n2cnc3c(CSc4ccccc4Cl)ncnc32)[C@H](O)[C@@H]1O
0.363 µM | OC[C@H]1O[C@@H](n2cnc3c(CSc4cccc(Br)c4)ncnc32)[C@H](O)[C@@H]1O
4.57 µM | Nc1nc(SCc2ccccc2[N+](=O)[O-])c2ncn([C@@H]3O[C@H](CO)[C@@H](O)[C@H]3O)c2n1
0.178 µM | Nc1nc(SCc2cccc([N+](=O)[O-])c2)c2ncn([C@@H]3O[C@H](CO)[C@@H](O)[C@H]3O)c2n1

IC50 | Structure (SMILES)
0.977 µM | O=[N+]([O-])c1ccc(CNc2ncnc3c2ncn3[C@@H]2O[C@H](CO)C[C@H]2O)cc1
0.0331 µM | O=[N+]([O-])c1ccc(O)c(CSc2ncnc3c2ncn3[C@@H]2O[C@H](CO)[C@@H](O)[C@H]2O)c1
0.427 µM | Cc1c(CNc2ncnc3c2ncn3[C@@H]2O[C@H](CO)[C@@H](O)[C@H]2O)cccc1[N+](=O)[O-]
1.55 µM | OC[C@H]1O[C@@H](n2cnc3c(SCC4CCCCC4)ncnc32)[C@H](O)[C@@H]1O
0.245 µM | OC[C@H]1O[C@@H](n2cnc3c(CSc4cccc(I)c4)ncnc32)[C@H](O)[C@@H]1O
4.79 µM | Nc1nc(SCc2ccccc2F)c2ncn([C@@H]3O[C@H](CO)[C@@H](O)[C@H]3O)c2n1
1.7 µM | OC[C@H]1O[C@@H](n2cnc3c(SCc4ccccc4)ncnc32)[C@H](O)[C@@H]1O [6-BENZYLTHIOINOSINE]
0.0158 µM | O=[N+]([O-])c1ccc(CNc2ncnc3c2ncn3[C@H]2C[C@H](O)[C@@H](CO)O2)cc1
0.355 µM | OC[C@H]1O[C@@H](n2cnc3c(CSc4ccccc4F)ncnc32)[C@H](O)[C@@H]1O
0.813 µM | COC(=O)c1ccc(SCc2ncnc3c2ncn3[C@@H]2O[C@H](CO)[C@@H](O)[C@H]2O)cc1
1.29 µM | Cc1ccc([N+](=O)[O-])c(CNc2ncnc3c2ncn3[C@@H]2O[C@H](CO)[C@@H](O)[C@H]2O)c1
0.0871 µM | Cc1cc(CNc2ncnc3c2ncn3[C@@H]2O[C@H](CO)[C@@H](O)[C@H]2O)ccc1[N+](=O)[O-]
0.0692 µM | OC[C@H]1O[C@@H](n2cnc3c(CSc4ccc(I)cc4)ncnc32)[C@H](O)[C@@H]1O
4.17 µM | Nc1ccc(CNc2ncnc3c2ncn3[C@@H]2O[C@H](CO)[C@@H](O)[C@H]2O)cc1
0.331 µM | OC[C@H]1O[C@@H](n2cnc3c(CSc4cccc(C(F)(F)F)c4)ncnc32)[C@H](O)[C@@H]1O
0.347 µM | O=[N+]([O-])c1ccc(CNc2ncnc3c2ncn3[C@@H]2O[C@H](CO)[C@@H](O)[C@H]2O)c(Cl)c1
1.17 µM | Cc1ccc(CNc2ncnc3c2ncn3[C@@H]2O[C@H](CO)[C@@H](O)[C@H]2O)cc1[N+](=O)[O-]
0.178 µM | OC[C@H]1O[C@@H](n2cnc3c(CSc4ccc(Br)cc4)ncnc32)[C@H](O)[C@@H]1O
0.0275 µM | O=[N+]([O-])c1ccc(CNc2ncnc3c2ncn3[C@@H]2O[C@H](CO)[C@@H](O)[C@H]2O)cc1
0.00275 µM | Nc1nc(SCc2cc([N+](=O)[O-])ccc2O)c2ncn([C@@H]3O[C@H](CO)[C@@H](O)[C@H]3O)c2n1
0.282 µM | OC[C@H]1O[C@@H](n2cnc3c(CSc4ccccc4I)ncnc32)[C@H](O)[C@@H]1O
